Laboratory results as given in patent US20060040957A1, “BICYCLIC PYRIMIDINE MATRIX METALLOPROTEINASE INHIBITORS” (priority 2001, published 2006).
Where a name gives a salt, the structure may show the parent alone. Read-outs that look alike come from different tables or passages of the source.

Target: MMP-13CD (catalytic domain of collagenase 3) (Homo sapiens, UniProt P45452)
Test: Thiopeptolide substrate hydrolysis assay, MMP-13CD
Type: biochemical
Excerpt: Thiopeptolide substrates show virtually no decomposition or hydrolysis at or below neutral pH in the absence of a matrix metalloproteinase enzyme.

[1] = thiopeptolide substrate, HEPES pH 7.0, 22° C., read-out: IC50 (μM) Versus Certain MMPs: MMP-13 CD

Structure (SMILES): CCC(CC)n1c(=O)c(C)c2sc(C(=O)NCc3ccc(F)cc3)cn2c1=O [Example 94, 6-(1-Ethyl-propyl)-8-methyl-5,7-dioxo-6,7-dihydro-5H-thiazolo[3,2-c]pyrimidine-2-carboxylic acid 4-fluoro-benzylamide]
- IC50 [1]: > 30 µM

Structure (SMILES): Cc1c(=O)n(CCS(=O)(=O)c2ccccc2)c(=O)n2cc(C(=O)NCc3ccc(F)cc3)sc12 [Example 96, 6-(2-Benzenesulfonyl-ethyl)-8-methyl-5,7-dioxo-6,7-dihydro-5H-thiazolo[3,2-c]pyrimidine-2-carboxylic acid 4-fluoro-benzylamide]
- IC50 [1]: 1.2 µM

Structure (SMILES): Cc1c(=O)n(CCNC(=O)c2ccccc2)c(=O)n2cc(C(=O)NCc3ccc(F)cc3)sc12 [Example 100, 6-(2-Benzoylamino-ethyl)-8-methyl-5,7-dioxo-6,7-dihydro-5H-thiazolo[3,2-c]pyrimidine-2-carboxylic acid 4-fluoro-benzylamide]
- IC50 [1]: 10 µM

Structure (SMILES): Cc1c(=O)n(Cc2ccc(S(=O)(=O)N3CCOCC3)cc2)c(=O)n2ccsc12 [Example 108, 8-Methyl-6-[4-(morpholine-4-sulfonyl)-benzyl]-thiazolo[3,2-c]pyrimidine-5,7-dione]
- IC50 [1]: > 100 µM

Structure (SMILES): Cc1c(=O)n(Cc2ccccc2)c(=O)n2cc(C(=O)NCC3CCCO3)sc12 (stereo not shown) [Example 110, 6-Benzyl-8-methyl-5,7-dioxo-6,7-dihydro-5H-thiazolo[3,2-c]pyrimidine-2-carboxylic acid(tetrahydro-furan-2-ylmethyl)-amide]
- IC50 [1]: 54 µM

Structure (SMILES): COC(=O)Nc1cc(Cn2c(=O)c(C)c3sc(C(=O)NCc4ccc(F)cc4)cn3c2=O)on1 [Example 111, {5-[2-(4-Fluoro-benzylcarbamoyl)-8-methyl-5,7-dioxo-7H-thiazolo[3,2-c]pyrimidine-6-ylmethyl]-isoxazol-3-yl}-carbamic acid methyl ester]
- IC50 (running text after Table 1, read-out: IC50 inhibition of MMP-13CD): 0.17 µM

Structure (SMILES): COc1cc(CNC(=O)c2cn3c(=O)n(Cc4ccc(F)c(F)c4)c(=O)c(C)c3s2)ccn1 [Example 114, 6-(3,4-Fluoro-benzyl)-8-methyl-5,7-dioxo-6,7-dihydro-5H-thiazolo[3,2-c]pyrimidine-2-carboxylic acid(2-methoxy-pyridin-4-ylmethyl)-amide hydrochloride]
- IC50 (IC50 inhibition of MMP-13CD, running text after Table 1): 0.0155 µM
